Source: patent US4342766A, “Novel dihydro-as-triazino[5,6-c]quinoline derivatives and a process for the preparation thereof” (priority 1980, dated 1982)

Key:
[1] = Antiphlogistic effect, carrageenin paw test on rats (method of Winter); conditions: for ED50: Rattus norvegicus, po, 3 h, read-out: Antiphlogistic effect ED50 p.o.; for Therapeutic index LD50/ED50 (antiphlogistic effect): p.o., carrageenin paw test on rats, LD50 from mice
Protocol: The antiphlogistic effect of the novel compounds of the invention was investigated on rats by the method of Winter [J. Pharm. […] 0.1 ml of a 1 percent carrageenin suspension was injected, subcutaneously, into the plantar region of one of the hind paws. The compounds to be tested were administered orally into the animals 1 hour before the injection of the carrageenine suspension. The volume of the treated paw was measured by mercury-plethysmometer before and 3 hours after injection.

[2] = in vivo; conditions: mouse, mice, female and male, 18 to 24 g, oral
Protocol: The acute toxicity of the compounds of the formula I was determined on both female and male mice weighing 18 to 24 g. The compounds were administered orally.

[3] = Analgesic effect, acetic acid writhing test on mice; conditions: for ED50: Mus musculus, po, read-out: Analgesic effect ED50 p.o.; for Therapeutic index LD50/ED50 (analgesic effect): mice, p.o., acetic acid writhing
Protocol: The analgesic effect was studied by means of the acetic acid writhing test on mice. After the intraperitoneal administration of 0.4 ml of 0.5 percent acetic acid, the writhing responses were counted between the fifth and tenth minutes. The writhing number was calculated as the percentage of the control value. The compounds tested were orally administered to the animals 1 hour prior to the treatment with acetic acid. […] Paracetamole and phenylbutazone were used as reference substance.

[4] = Narcosis potentiating effect (hexobarbital sleeping time); type: in vivo, mice; conditions: for ED50: Mus musculus, read-out: Narcosis potentiating effect ED50 p.o.; for Therapeutic index LD50/ED50 (narcosis potentiating effect): p.o., hexobarbital
Protocol: The narcosis potentiating effect of the novel compounds of the formula I was tested on groups consisting of 6 mice each. The animals belonging to the control group received an oral dosage of 20 ml/kg of 0.9 percent aqueous sodium chloride solution, whereas the other animals were treated orally with the compound to be tested.

[5] = Anticonvulsive effect, inhibition of the spasm provoked by electroshock; type: in vivo, white mice; conditions: for ED50: Mus musculus, white mice, oral 1 hour prior to electroshock (45 mA, 50 Hz, 0.4 sec), read-out: Inhibition of the spasm provoked by electroshock ED50 p.o.; for Therapeutic index LD50/ED50 (electroshock): mice, p.o.
Text: The anticonvulsive effect of the novel compounds was studied on white mice weighing 20 to 25 g through the inhibition of the spasm developed by electroshock. The electroshock was provoked by means of corneal electrodes with a current intensity of 45 mA. The frequency of the current used was equivalent to 50 Hz, and the duration of each electroshock was 0.4 sec. The complete inhibition of the tonic extension of the hind limbs was taken as criterium of the anticonvulsive effect. The compounds to be tested were administered orally 1 hour prior to the electroshock.

[6] = Anticonvulsive effect, inhibition of spasms provoked by pentamethylenetetrazole; type: in vivo, white mice; conditions: for ED50: Mus musculus, white mice, oral 1 hour before pentamethylenetetrazole 125 mg/kg i.p., read-out: Inhibition of spasms provoked by pentamethylenetetrazole ED50 p.o.; for Therapeutic index LD50/ED50 (pentamethylenetetrazole): mice, p.o.
Protocol: The anticonvulsive effect of the compounds was also studied through the inhibition of the spasm provoked by pentamethylenetetrazole [6,7,8,9-tetrahydro-5H-tetrazoloazepine]. 125 mg/kg doses of pentamethylenetetrazole were administered intraperitoneally into white mice divided into groups consisting of 6 animals and the tonic extension spasms of the hind limbs were registered. The compounds to be tested were administered orally 1 hour before the injection of pentamethylenetetrazole.

[7] = Tetrabenazine antagonism; type: in vivo; conditions: for ED50: Mus musculus, oral 30 minutes before tetrabenazine 50 mg/kg i.p., counts at 30, 60, 90 and 120 minutes, read-out: Tetrabenazine antagonism ED50 p.o.; for Therapeutic index LD50/ED50 (tetrabenazine antagonism): p.o.
Protocol: The tetrabenazine antagonizing effect of the novel compounds was tested on groups consisting of 10 mice each. The animals belonging to the control group received an oral dosage of 20 ml/kg of 0.9 percent aqueous sodium chloride solution, whereas the other animals were treated orally with the compound to be tested. 30 minutes after the introduction of the active agent or the vehicle, 50 mg/kg of tetrabenazine [3-isobutyl-9,10-dimethoxy-1,2,3,4,6,7-hexahydrobenzo[a]quinolizine-2-one]were administered intraperitoneally. The animals with closed palpebral fissures were counted 30, 60, 90 and 120 minutes after the administration of tetrabenazine. The data obtained in the individual measuring times were added, and the percentage inhibition related to the controls was calculated. Amitriptylin was employed as reference compound.

[8] = mice, oral 1 hour before hexobarbital 40 mg/kg i.v., 150 percent prolongation of sleeping time = positive response

Compound: CCCCCC1=Nc2cnc3ccccc3c2N(C(C)=O)N1 [Example 1, 1-acetyl-3-amyl-1,2-dihydro-as-triazino[5,6-c]quinoline]
- ED50 [1]: 100 mg/kg
- Therapeutic index LD50/ED50 (antiphlogistic effect) [1]: 20
- LD50 [2]: 2000 mg/kg
- ED50 [3]: 125 mg/kg
- Therapeutic index LD50/ED50 (analgesic effect) [3]: 16
- ED50 [4, 8]: 200 mg/kg
- Therapeutic index LD50/ED50 (narcosis potentiating effect) ([4]; mice): 10

Compound: CC(=O)N1C(c2ccccc2)=NNc2c1cnc1ccccc21 [Example 3, 4-Acetyl-3-phenyl-1,4-dihydro-as-triazino[5,6-c]quinoline]
- LD50 [2]: 2000 mg/kg
- ED50 [4, 8]: 150 mg/kg
- Therapeutic index LD50/ED50 (narcosis potentiating effect) ([4]; mice): 13.3

Compound: CCCCC1=Nc2cnc3ccccc3c2N(C(C)=O)N1 [Example 6, 1-Acetyl-3-butyl-1,2-dihydro-as-triazino[5,6-c]quinoline]
- ED50 [5]: 160 mg/kg
- Therapeutic index LD50/ED50 (electroshock) [5]: 12.5
- ED50 [6]: 90 mg/kg
- Therapeutic index LD50/ED50 (pentamethylenetetrazole) [6]: 22,2
- ED50 [1]: 36 mg/kg
- Therapeutic index LD50/ED50 (antiphlogistic effect) [1]: 55
- LD50 [2]: 2000 mg/kg
- ED50 [3]: 320 mg/kg
- Therapeutic index LD50/ED50 (analgesic effect) [3]: 6
- ED50 [4, 8]: 125 mg/kg
- Therapeutic index LD50/ED50 (narcosis potentiating effect) ([4]; mice): 16

Compound: CCCCCCCCC1=Nc2cnc3ccccc3c2N(C(C)=O)N1 [Example 7, 1-Acetyl-3-octyl-1,2-dihydro-as-triazino[5,6-c]quinoline]
- ED50 [5]: 450 mg/kg
- Therapeutic index LD50/ED50 (electroshock) [5]: 4.4
- ED50 [6]: 350 mg/kg
- Therapeutic index LD50/ED50 (pentamethylenetetrazole) [6]: 5,7
- LD50 [2]: 2000 mg/kg

Compound: CC(=O)N1NC(CC(C)C)=Nc2cnc3ccccc3c21 [Example 8, 1-Acetyl-3-isobutyl-1,2-dihydro-as-triazino[5,6-c]quinoline]
- ED50 [5]: 200 mg/kg
- Therapeutic index LD50/ED50 (electroshock) [5]: 10
- ED50 [6]: 72 mg/kg
- Therapeutic index LD50/ED50 (pentamethylenetetrazole) [6]: 27,8
- ED50 [7]: 20 mg/kg
- Therapeutic index LD50/ED50 (tetrabenazine antagonism) [7]: 100
- LD50 [2]: 2000 mg/kg
- ED50 [4, 8]: 70 mg/kg
- Therapeutic index LD50/ED50 (narcosis potentiating effect) ([4]; mice): 28.5

Compound: CC(=O)N1NC(C(C)(C)C)=Nc2cnc3ccccc3c21 [Example 9, 1-Acetyl-3-tert.-butyl-1,2-dihydro-as-triazino[5,6-c]quinoline]
- ED50 [6]: 165 mg/kg
- Therapeutic index LD50/ED50 (pentamethylenetetrazole) [6]: 12
- LD50 [2]: 2000 mg/kg

Compound: CC(=O)N1NC(CCC(C)C)=Nc2cnc3ccccc3c21 [Example 10, 1-Acetyl-3-(3'-methyl-1'-butyl)-1,2-dihydro-as-triazino[5,6-c]quinoline]
- ED50 [7]: 14.5 mg/kg
- Therapeutic index LD50/ED50 (tetrabenazine antagonism) [7]: 138
- ED50 [1]: 200 mg/kg
- Therapeutic index LD50/ED50 (antiphlogistic effect) [1]: 10
- LD50 [2]: 2000 mg/kg
- ED50 [3]: 100 mg/kg
- Therapeutic index LD50/ED50 (analgesic effect) [3]: 20
- ED50 [4, 8]: 100 mg/kg
- Therapeutic index LD50/ED50 (narcosis potentiating effect) ([4]; mice): 20

Compound: CCC(CC)C1=Nc2cnc3ccccc3c2N(C(C)=O)N1 [Example 11, 1-Acetyl-3-[1'-ethyl-1'-propyl]-1,2-dihydro-as-triazino[5,6-c]quinoline]
- ED50 [7]: 54 mg/kg
- Therapeutic index LD50/ED50 (tetrabenazine antagonism) [7]: 37

Compound: CN(C)CCC=C1c2ccccc2CCc2ccccc21 [amitriptylin, 5-(3-dimethylaminopropylidene)-10,11-dihydro-5H-dibenzo[a,d]cycloheptene, reference compound]
- ED50 [7]: 12 mg/kg
- Therapeutic index LD50/ED50 (tetrabenazine antagonism) [7]: 19

Compound: CCCC(C)(COC(N)=O)COC(N)=O [meprobamate, 2-methyl-2-propylpropane-1,3-diol dicarbamate, reference compound]
- ED50 ([4]; po): 260 mg/kg
- Therapeutic index LD50/ED50 (narcosis potentiating effect) ([4]; mice): 4.2

Compound: CC(=O)Nc1ccc(O)cc1 [paracetamole, p-hydroxyacetanilide, reference compound]
- LD50 [2]: 540 mg/kg
- ED50 [3]: 180 mg/kg
- Therapeutic index LD50/ED50 (analgesic effect) [3]: 3

Compound: CCCCC1C(=O)N(c2ccccc2)N(c2ccccc2)C1=O [phenylbutazone, 4-butyl-1,2-diphenylpyrazolidine-3,5-dione, reference compound]
- ED50 [1]: 100 mg/kg
- ED50 [3]: 60 mg/kg

Compound: CN1C(=O)OC(C)(C)C1=O [trimethadione, 3,5,5-trimethyloxazolidine-2,4-dione, reference compound]
- ED50 [5]: 400 mg/kg
- Therapeutic index LD50/ED50 (electroshock) [5]: 5.3
- ED50 [6]: 490 mg/kg
- Therapeutic index LD50/ED50 (pentamethylenetetrazole) [6]: 4,3
- LD50 [2]: 2050 mg/kg
